In US20220000892A1, “INFANT NUTRITIONAL COMPOSITION FOR USE IN THE ENHANCEMENT OF PANCREATIC MATURATION AND INSULIN BIOSYNTHESIS” (SOCIETE DES PRODUITS NESTLE S.A., priority 2018, published 2022):

System: IUGR rats
Experiment: Insulin content of pancreas of IUGR rats at postnatal day 57 after HMO supplementation (ELISA)
Format: in vivo, Sprague-Dawley rats
Conditions: gavage 3 g/kg body weight d7 to d21, then diet with 4.5 wt% HMO d22 to d57, sacrifice at day 57 after 6-hr fasting, compared with control IUGR rats (about 50 μg insulin per g pancreatic tissue), FIG. 1, *P<0.05
Text: Three groups of time-mated pregnant Sprague-Dawley female rats were bought from Charles River laboratories. One group was submitted to food restriction of 60% during the last 10 days of gestation and their offspring were cross-fostered to normally fed rats. A second group of pregnant females was normally fed and their offspring cross-fostered among the same group of dams. Immediately after birth ([…]), the born rat pups-subjects of the experiment-were assigned to one of the following groups: • IUGR group (negative control; n=20): IUGR rats being fed a normal diet after birth; • IUGR rats+HMO (test groups): During the experiment, they were reared by their mothers for 21 days and supplemented with HMOs (2-FL, LNnT or the Mix of 2-FL and LNnT). At weaning, they were fed a diet supplemented with the same HMOs, see details below. […] All rat pups were fed from birth (d=1) up to 57 days (d=57) based on the following protocol: • d1 to d6: all groups of rats were nursed by dam (mothers' milk only); • d7 to d21: all rats were nursed by dam (mothers' milk only). […] Rats were sacrificed at day 57 (postnatal day 57=p57) after a 6-hr fasting period and pancreas was dissected and its insulin content was extracted using a solution acid-ethanol and quantified using an Ultra Sensitive Insulin ELISA kit ([…]., Downer Grove, Ill., USA) with and inter assay CV of 4.0%.

Compound | insulin content of the rat's pancreas (amount of insulin per gram of pancreatic tissue)
CC(=O)N[C@H]1[C@H](O[C@H]2[C@@H](O)[C@@H](CO)O[C@@H](O[C@H]3[C@H](O)[C@@H](O)C(O)O[C@@H]3CO)[C@@H]2O)O[C@H](CO)[C@@H](O[C@@H]2O[C@H](CO)[C@H](O)[C@H](O)[C@H]2O)[C@@H]1O (mixture of isomers) [LNnT, lacto-N-neotetraose] | about the same level of insulin
2′-fucosyllactose [2FL] | significantly higher value of insulin
